Assay results reported in patent US20080200531A1, “CDKI pathway inhibitors as inhibitors of tumor cell growth” (priority 2006, published 2008).

Experiments:
CDK6/cyclinD3 (h) = target: T1, CDK6/cyclinD3 (h) (Homo sapiens, UniProt Q00534); experiment: Cyclin/CDK kinase assay (Upstate), CDK6/cyclinD3; type: biochemical; conditions: 100 μM, re-tested at 20 and 40 μM (SNX9, SNX2) or 10 and 20 μM (SNX9-1, SNX14)
T1 construct: purchased Upstate Biotechnology, Inc
Procedure: (§1) To test the above hypothesis, we determined whether several CDKI pathway inhibitors, including two SNX9 class compounds (SNX9 and SNX9-1), two compounds of a different structural class (SNX14 and SNX2) and another unrelated inhibitor (SNX35), inhibit the kinase activity of different complexes formed in vitro by purified cyclin/CDK complexes. This analysis was carried out as a service by Upstate Biotechnology, Inc.
(§2) In a final reaction volume of 25 μl, CDK6/cyclinD3 (h) (5-10 mU) is incubated with 8 mM MOPS pH 7.0, 0.2 mm EDTA, 0.1 mg/ml H1, 10 mM MgAcetate and [γ-33P-ATP] (specific activity approx. 500 cpm/pmol, 200 μM concentration). The reaction is initiated by the addition of the MgATP mix. After incubation for 40 minutes at room temperature, the reaction is stopped by the addition of 5 μl of a 3% phosphoric acid solution. 10 μl of the reaction is then spotted onto a P30 filtermat and washed three times for 5 minutes in 75 mM phosphoric acid and once in methanol prior to drying and scintillation counting.
(§3) At the first step, all the compounds were tested at 100 μM concentration. […] For SNX14 and SNX2, the relative efficacy of inhibition was CDK1>CDK2˜CDK3>CDK6. For SNX9 and SNX9-1, the order was CDK3>CDK1>CDK2>CDK6 (FIG. 12).

CDK1/cyclinB (h) = target: T2, CDK1/cyclinB (h) (Homo sapiens, UniProt P06493); experiment: Cyclin/CDK kinase assay (Upstate), CDK1/cyclinB; type: biochemical; conditions: 100 μM, re-tested at 20 and 40 μM (SNX9, SNX2) or 10 and 20 μM (SNX9-1, SNX14)
T2 construct: purchased Upstate Biotechnology, Inc
Procedure: as §1
as §2, with “CDK1/cyclinB” for “CDK6/cyclinD3”, “μU)” for “mU)”, “mM” for “mm”, “mg/ml histone” for “mg/ml”, “45” for “200”
as §3

[1] = Range Finder Study (acute toxicity, MTD) in NCr nude mice; type: in vivo; conditions: for impact on White Blood Cell count, first iteration: up to 17.6 mg/kg intravenously; for impact on White Blood Cell count, second iteration / toxicity in the Range Finder Study: up to 70.4 mg/kg intravenously
Procedure: Male NCr nude mice, aged approximately 6-8 weeks were used for the study, which was carried out as a service by Taconic Biotechnology, Rensselaer, N.Y. Animals were maintained under virus free barrier conditions with continuous health monitoring. The administration of test materials, all data collection and disposal of study animals was in compliance with all relevant Taconic Biotechnology Standard Operating Procedures as well as The Guide for the Care and Use of Laboratory Animals. Study animals were observed upon arrival and daily throughout the study for overall health, behavior and morbidity. Test animals were subject to body weight measurement to determine dosage volumes of test articles.
The initial part of this analysis was a Range Finder Study, designed to evaluate acute toxicity and to identify the maximum tolerated dose (MTD) for therapeutic study. The Range Finder Study was performed twice. For the first iteration, 30 mice were injected intravenously with SNX9 and SNX9-1 in groups of 3 with phosphate buffered saline (PBS) only, 2.2 mg/kg SNX9, 4.4 mg/kg SNX9 8.8 mg/kg SNX9, 17.6 mg/kg SNX9, 80% PBS: 20% DMSO, 2.2 mg/kg SNX9-1, 4.4 mg/kg SNX9-1 8.8 mg/kg SNX9-1, 17.6 mg/kg SNX9-1. SNX9 was dissolved in PBS and SNX9-1 was dissolved in 80% PBS:20% DMSO. The volume injected per animal was approximately 0.1 ml/injection. […] All other animals appeared healthy and thrived for the duration of the 3 day period of observation, and their general health and body weight were assessed. For all the mice, there was no significant weight change (see Table 4). At the end of the 3 day observation period all the mice were euthanized and a terminal blood sample was collected via cardiac puncture. These blood samples were analyzed for complete blood count evaluation. […] A slight elevation of Red Blood Cell count was detected in approximately half of the groups, although this elevation was less than a 7% increase above the upper reference range and was not considered significant. All other blood count categories placed within the reference range.
For the second iteration, 24 mice were injected intravenously with SNX9 and SNX9-1 in groups of 3 with PBS only, 17.6 mg/kg SNX9, 35.2 mg/kg SNX9, 70.4 mg/kg SNX9, 80% PBS:20% DMSO, […] SNX9-1, 35.2 mg/kg SNX9-1, 70.4 mg/kg SNX9-1. […] All other animals were healthy for the duration of the 3 day period during which the animals were observed and their general health and body weight were assessed. For all the mice, there was no significant weight change (see Table 4). The average beginning weight for the mice in the second iteration was 23.7 g±1.73. After the 3 day observation period all the mice were euthanized and a terminal blood sample was collected via cardiac puncture. These blood samples were analyzed for complete blood count evaluation. […] A slight elevation of Red Blood Cell count was detected in approximately 7 out of eight of the groups, although this elevation was less than a 6% increase above the upper reference range and was not considered significant. All other blood count categories placed within the reference range.

[2] = tested on: isogenic human fibroblast cell lines (untransformed, partially transformed, fully transformed); experiment: Dose-dependent growth inhibition of three isogenic human fibroblast cell lines with increasing neoplastic transformation; type: cell-based; conditions: 3-day assay, Hoechst 33342
Description: To determine if tumor-specific growth inhibitory activity of SNX9 class compounds could be due to the inhibition of a specific CDK, we took advantage of the availability of selective inhibitors for some of the CDK proteins. Among these enzymes, CDK1, CDK2 and CDK4/CDK6 (the latter two CDKs are closely related to each other and interact with the same class of cyclins), have been used as targets for developing specific inhibitors, with potential anticancer activity. In contrast, CDK3 has not been used as a target for developing selective inhibitors. We have obtained commercially available selective inhibitors of CDK1 (CGP74514A) (Calbiochem Cat. No. 217696), CDK2 (CVT-313) (Calbiochem Cat. No. 238803), and CDK4 (NSC 625987) (Calbiochem Cat. No. 219477), and tested them, along with a broad-specificity CDK inhibitor flavopiridol, and with SNX14, SNX9 and SNX9-1, for growth inhibition of normal and transformed fibroblasts.
This analysis was done using a set of three isogenic human fibroblast cell lines with increasing degrees of neoplastic transformation (immortal but untransformed, partially transformed, and fully transformed).

[3] = tested on: cyclin/CDK complexes (CDK1, CDK2, CDK3, CDK6); experiment: Cyclin/CDK kinase assays, comparison over all complexes; type: biochemical, human
Procedure: as §1, §3

T1 sequence (Q00534 whole entry): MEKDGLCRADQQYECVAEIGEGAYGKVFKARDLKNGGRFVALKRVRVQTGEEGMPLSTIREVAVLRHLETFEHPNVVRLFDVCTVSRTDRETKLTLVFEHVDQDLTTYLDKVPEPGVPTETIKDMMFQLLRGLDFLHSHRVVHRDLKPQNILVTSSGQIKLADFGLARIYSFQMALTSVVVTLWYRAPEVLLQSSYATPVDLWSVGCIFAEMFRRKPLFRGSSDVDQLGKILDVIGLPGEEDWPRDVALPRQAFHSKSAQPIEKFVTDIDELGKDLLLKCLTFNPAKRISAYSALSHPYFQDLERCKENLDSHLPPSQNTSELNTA
T1 sequence (P30281 whole entry partner): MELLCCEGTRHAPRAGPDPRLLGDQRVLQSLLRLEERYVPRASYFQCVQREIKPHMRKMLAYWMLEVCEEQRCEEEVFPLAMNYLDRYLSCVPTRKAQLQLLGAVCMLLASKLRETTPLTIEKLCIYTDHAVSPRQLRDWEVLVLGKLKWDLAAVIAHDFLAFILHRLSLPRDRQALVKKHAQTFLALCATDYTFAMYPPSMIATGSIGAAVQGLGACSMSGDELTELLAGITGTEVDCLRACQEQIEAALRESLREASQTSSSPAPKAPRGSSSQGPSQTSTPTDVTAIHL
T2 sequence (P06493 whole entry): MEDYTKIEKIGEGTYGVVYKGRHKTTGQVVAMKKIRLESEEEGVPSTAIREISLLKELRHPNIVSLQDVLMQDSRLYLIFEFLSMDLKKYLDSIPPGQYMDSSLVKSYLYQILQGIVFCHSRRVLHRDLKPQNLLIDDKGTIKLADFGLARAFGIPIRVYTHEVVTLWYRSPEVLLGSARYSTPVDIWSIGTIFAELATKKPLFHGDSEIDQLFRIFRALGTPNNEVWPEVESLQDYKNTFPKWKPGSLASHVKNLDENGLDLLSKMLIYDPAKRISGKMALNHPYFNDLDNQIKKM
T2 sequence (P14635 whole entry partner): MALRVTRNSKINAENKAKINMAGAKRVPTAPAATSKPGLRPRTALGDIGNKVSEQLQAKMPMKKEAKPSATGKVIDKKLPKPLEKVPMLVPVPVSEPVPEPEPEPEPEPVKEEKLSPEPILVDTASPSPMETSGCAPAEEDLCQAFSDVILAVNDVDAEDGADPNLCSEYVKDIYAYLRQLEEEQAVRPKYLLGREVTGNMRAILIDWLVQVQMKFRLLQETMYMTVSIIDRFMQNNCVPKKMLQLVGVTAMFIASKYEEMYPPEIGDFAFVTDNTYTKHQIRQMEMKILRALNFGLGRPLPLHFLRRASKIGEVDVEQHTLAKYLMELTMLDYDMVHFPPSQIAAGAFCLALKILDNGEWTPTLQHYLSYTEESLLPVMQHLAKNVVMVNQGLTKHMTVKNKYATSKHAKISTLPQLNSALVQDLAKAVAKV

SMILES | kinase activity of CDK6 (CDK6/cyclinD3 (h)) | kinase activity of CDK1 (CDC2) (CDK1/cyclinB (h)) | deaths, second iteration ([1]; 70.4 mg/kg group of 3, intravenously, shortly after dosing, likely due to shock and not compound toxicity) | impact on White Blood Cell count, first iteration [1] | impact on White Blood Cell count, second iteration [1] | toxicity in the Range Finder Study [1] | selectivity of growth inhibition for transformed cell lines relative to immortal but untransformed fibroblasts [2] | relative efficacy of inhibition (order of CDKs) [3] | deaths, first iteration ([1]; 2.2 mg/kg (lowest dose) group of 3, intravenously, day one, apparently due to shock)
Cc1[nH]c2c(Cl)cccc2c1CCN [SNX9] | inhibited the kinase activities | inhibited the kinase activities | One animal died shortly after dosing | neither SNX9 nor SNX9-1 had a detectable impact on White Blood Cell count | neither SNX9 nor SNX9-1 had a detectable impact on White Blood Cell count | complete lack of toxicity | pronounced selectivity for partially transformed or fully transformed cell lines | CDK3>CDK1>CDK2>CDK6 | 
NCCc1c[nH]c2c(Cl)cc(Cl)cc12 [SNX9-1] | inhibited the kinase activities | inhibited the kinase activities |  | neither SNX9 nor SNX9-1 had a detectable impact on White Blood Cell count | neither SNX9 nor SNX9-1 had a detectable impact on White Blood Cell count | complete lack of toxicity | pronounced selectivity for partially transformed or fully transformed cell lines | CDK3>CDK1>CDK2>CDK6 | One animal died on day one
